Experimental findings from patent publication US8394969B2, “Cyclic benzimidazole derivatives useful as anti-diabetic agents” (Merck Sharp & Dohme Corp., priority 2008, dated 2013) are described below.

Counter-ions that a name gives are not always drawn. Like-named read-outs stand apart in the source and are kept apart here.

The target of the assay is recombinant human AMPK complex 1 (containing α1β1γ1) (Homo sapiens, UniProt Q13131+Q9Y478). Kind of assay: […] (in vitro AMPK activation assay). Format: biochemical. Particulars: for Emax: basal activity subtracted; for EC50: read-out: EC50.
recombinant human AMPK complex 1 (containing α1β1γ1), sequence (Q13131 whole entry): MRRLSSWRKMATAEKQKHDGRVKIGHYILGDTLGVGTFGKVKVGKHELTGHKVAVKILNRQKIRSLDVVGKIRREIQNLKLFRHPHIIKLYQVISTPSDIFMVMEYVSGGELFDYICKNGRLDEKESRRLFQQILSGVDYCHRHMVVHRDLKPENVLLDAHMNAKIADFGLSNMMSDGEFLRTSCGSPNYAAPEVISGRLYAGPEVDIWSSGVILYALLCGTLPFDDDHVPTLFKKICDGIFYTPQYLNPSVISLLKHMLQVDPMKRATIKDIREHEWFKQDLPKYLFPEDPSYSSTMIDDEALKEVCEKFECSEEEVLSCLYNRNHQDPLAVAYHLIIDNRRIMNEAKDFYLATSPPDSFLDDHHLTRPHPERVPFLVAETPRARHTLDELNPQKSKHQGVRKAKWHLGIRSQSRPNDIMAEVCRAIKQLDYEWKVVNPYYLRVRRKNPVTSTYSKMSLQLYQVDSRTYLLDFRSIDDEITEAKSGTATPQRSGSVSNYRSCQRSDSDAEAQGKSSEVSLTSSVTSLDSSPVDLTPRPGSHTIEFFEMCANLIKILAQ
recombinant human AMPK complex 1 (containing α1β1γ1), sequence (Q9Y478 whole entry): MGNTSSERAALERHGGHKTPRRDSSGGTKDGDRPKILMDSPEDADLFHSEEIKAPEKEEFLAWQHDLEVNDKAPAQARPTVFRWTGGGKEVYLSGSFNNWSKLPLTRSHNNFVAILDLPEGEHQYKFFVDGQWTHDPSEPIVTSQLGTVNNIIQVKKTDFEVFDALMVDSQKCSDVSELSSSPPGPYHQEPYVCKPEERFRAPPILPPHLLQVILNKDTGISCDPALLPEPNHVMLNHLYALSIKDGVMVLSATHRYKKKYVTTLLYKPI
recombinant human AMPK complex 1 (containing α1β1γ1), sequence (P54619 whole entry partner): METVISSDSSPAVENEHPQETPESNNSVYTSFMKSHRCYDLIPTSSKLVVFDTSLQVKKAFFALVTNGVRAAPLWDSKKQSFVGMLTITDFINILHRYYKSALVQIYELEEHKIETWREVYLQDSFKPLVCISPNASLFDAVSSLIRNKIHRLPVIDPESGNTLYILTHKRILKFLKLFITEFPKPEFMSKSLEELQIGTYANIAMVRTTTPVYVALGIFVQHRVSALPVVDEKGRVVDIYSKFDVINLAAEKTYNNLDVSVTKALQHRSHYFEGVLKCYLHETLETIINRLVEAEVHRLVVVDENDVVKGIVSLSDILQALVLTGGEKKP
Setting [1] is: recombinant human AMPK complex 1 (α1β1γ1), read-out: % Maximum AMP Activation of human AMPK Complex 1.
Setting [2] is: recombinant human AMPK complex 1 (α1β1γ1).
[3] abbreviates: read-out: % Maximum AMP Activation of human AMPK Complex 1, recombinant human AMPK complex 1 (α1β1γ1).

The term EC50 denotes the concentration needed to bring the measured effect to its halfway point.

As for `Cc1ccc(Oc2nc3cc(-c4ccc5c(C)n[nH]c5c4)c(Cl)cc3[nH]2)cc1C(=O)O` [Example 240, 5-[6-Chloro-5-(3-methyl-1H-indazol-6-yl)-1H-benzoimidazol-2-yloxy]-2-methyl-benzoic acid], the Emax under setting [1] is greater than 80%. As for `COC(=O)c1cc(Oc2nc3cc(-c4ccc(-c5ccc(=O)n(C(F)F)c5)cc4)c(Cl)cc3[nH]2)ccc1C` [Example 163, 5-{6-Chloro-5-[4-(1-difluoromethyl-6-oxo-1,6-dihydro-pyridin-3-yl)-phenyl]-1H-benzoimidazol-2-yloxy}-2-methyl-benzoic acid methyl ester], the Emax under setting [1] is greater than 80%. Turning to `Cc1ccc(Oc2nc3cc(-c4ccc5c(c4)OCCN5C)c(Cl)cc3[nH]2)cc1C(=O)O` [Example 151, 2-(3-carboxy-4-methylphenoxy)-6-chloro-5-(4-methyl-3,4-dihydro-2H-1,4-benzoxazin-7-yl)-1H-3,1-benzimidazol-3-ium chloride], the EC50 under setting [2] turned out to be 22 nM. `Cc1ccc(Oc2nc3cc(C#Cc4ccc(C#N)cc4)c(Cl)cc3[nH]2)cc1C(=O)O` [Example 92, 5-[6-Chloro-5-(4-cyano-phenylethynyl)-1H-benzoimidazol-2-yloxy]-2-methyl-benzoic acid]: the Emax under setting [1] is greater than 80%. Take `Cc1ccc(Oc2nc3cc(-c4ccc(OC(F)(F)F)cc4)c(Cl)cc3[nH]2)cc1C(=O)O` [Example 363, Ammonium 5-({6-chloro-5-[4-(trifluoromethoxy)phenyl]-1H-benzimidazol-2-yl}oxy)-2-methylbenzoate]: the Emax under setting [3] is greater than 80%.

With `COc1ccc(C#Cc2cc3nc(Oc4ccc(C)c(C(=O)O)c4)[nH]c3cc2Cl)cn1` [Example 129, 5-[6-Chloro-5-(6-methoxy-pyridin-3-ylethynyl)-1H-benzoimidazol-2-yloxy]-2-methyl-benzoic acid], under setting [1], the Emax is greater than 80%. With `Cc1ccc(Oc2nc3cc(-c4ccc5[nH]cc(C)c5c4)c(Cl)cc3[nH]2)cc1C(=O)O` [Example 287, 5-[6-Chloro-5-(3-methyl-1H-indol-5-yl)-1H-benzoimidazol-2-yloxy]-2-methyl-benzoic acid], the Emax under setting [1] was greater than 80%.

For `Cc1ccc(Oc2nc3cc(-c4ccc5c(c4)CN(C(C)C)C5)c(Cl)cc3[nH]2)cc1C(=O)O` [Example 299, 5-[2-(3-carboxy-4-methylphenoxy)-6-chloro-1H-benzimidazol-5-yl]-2-isopropyl-2,3-dihydro-1H-isoindolium trifluoroacetate], the Emax under setting [1] is greater than 80%.

In the case of `O=C(O)c1cc(Oc2nc3cc(-c4ccccc4O)c(Cl)cc3[nH]2)ccc1Cl` [Example 59, 2-Chloro-5-[6-chloro-5-(2-hydroxy-phenyl)-1H-benzoimidazol-2-yloxy]-benzoic acid], the Emax under setting [1] was greater than 80%. As for `COC(=O)c1cc(Oc2nc3cc(-c4ccc(-c5ccccc5C)cc4)c(Cl)cc3[nH]2)ccc1C` [Example 198, Methyl 5-{[6-chloro-5-(2′-methylbiphenyl-4-yl)-1H-benzimidazol-2-yl]oxy}-2-methylbenzoate], the Emax under setting [1] was greater than 80%.

As for `Cc1ccc(Oc2nc3cc(C#Cc4ccc(-c5nn[nH]n5)cc4)c(Cl)cc3[nH]2)cc1C(=O)O` [Example 79, 5-{6-Chloro-5-[4-(2H-tetrazol-5-yl)-phenylethynyl]-1H-benzimidazol-2-yloxy}-2-methyl-benzoic acid], the Emax under setting [1] was greater than 80%. Regarding `Cc1cc(Oc2nc3cc(-c4ccc(-c5ccccc5)cc4)c(Cl)cc3[nH]2)cc(O)c1C(=O)O` [Example 27, 4-(5-Biphenyl-4-yl-6-chloro-1H-benzoimidazol-2-yloxy)-2-hydroxy-6-mehtyl-benzoic acid], the Emax under setting [1] is greater than 80%. With `Cc1ccc(Oc2nc3cc(-c4nc5ccccc5s4)c(Cl)cc3[nH]2)cc1C(=O)O` [Example 354, 5-(5-Benzothiazol-2-yl-6-chloro-1H-benzoimidazol-2-yloxy)-2-methyl-benzoic acid], under setting [1], the Emax is greater than 80%. Still for that read-out and setting: then `Cc1ccc(Oc2nc3cc(-c4cncc5ccccc45)c(Cl)cc3[nH]2)cc1C(=O)O` [Example 336, 2-(3-carboxy-4-methylphenoxy)-6-chloro-5-isoquinolin-4-yl-1H-3,1-benzimidazol-3-ium formate], with greater than 80%. With `Cc1ccc(Oc2nc3cc(C#Cc4ccc(-c5ncc[nH]5)cc4)c(Cl)cc3[nH]2)cc1C(=O)O` [Example 73, 5-{6-Chloro-5-[4-(1H-imidazol-2-yl)-phenylethynyl]1H-benzoimidazol-2-yloxy}-2-methyl-benzoic acid], the Emax under setting [1] is greater than 80%. With `Cc1ccc(Oc2nc3cc(C#Cc4ccc(-c5nc[nH]n5)cc4)c(Cl)cc3[nH]2)cc1C(=O)O` [Example 78, 5-{6-Chloro-5-[4-(1H-[1,2,4]triazol-3-yl)-phenylethynyl]-1H-benzoimidazol-2-yloxy}-2-methyl-benzoic acid], under setting [1], the Emax was greater than 80%. The same measure, in the same setting: then `O=C(O)Cc1cccc(Oc2nc3cc(C#Cc4ccccc4)c(Cl)cc3[nH]2)c1` [Example 22, [3-(6-Chloro-5-phenylethynyl-1H-benzoimidazol-2-yloxy)-phenyl]-acetic acid], with greater than 80%; and `COc1ccc(-c2cc3nc(Oc4ccc(C)c(C(=O)O)c4)[nH]c3cc2Cl)cc1OC` [Example 260, 2-(3-carboxy-4-methylphenoxy)-6-chloro-5-(3,4-dimethoxyphenyl)-1H-3,1-benzimidazol-3-ium trifluoroacetate], with greater than 80%. On to `O=C(O)c1cc(Oc2nc3cc(-c4ccc(CO)cc4)c(Cl)cc3[nH]2)ccc1Cl` [Example 60, 2-Chloro-5-[6-chloro-5-(4-hydroxymethyl-phenyl)-1H-benzoimidazol-2-yloxy]-benzoic acid], for which the Emax under setting [1] is greater than 80%.

As to `O=C(O)C(O)c1cccc(Oc2nc3cc(-c4ccc(-c5ccccc5)cc4)c(Cl)cc3[nH]2)c1` (centres unmarked) [Example 19], the Emax under setting [1] is greater than 80%.

As for `Cc1ccc(Oc2nc3cc(C#Cc4ccc(-c5cn[nH]c5)cc4)c(Cl)cc3[nH]2)cc1C(=O)O` [Example 82, 5-{6-Chloro-5-[4-(1H-pyrazol-4-yl)-phenylethynyl]-1H-benzoimidazol-2-yloxy}-2-methyl-benzoic acid], the Emax under setting [1] is greater than 80%. On the same count and under the same terms, then `COC(=O)c1cc(Oc2nc3cc(-c4ccc(-c5ccccc5F)cc4)c(Cl)cc3[nH]2)ccc1C` [Example 195, Methyl 5-{[6-chloro-5-(2′-fluorobiphenyl-4-yl)-1H-benzimidazol-2-yl]oxy}-2-methylbenzoate], with greater than 80%. `Cc1ccc(Oc2nc3cc(-c4ccc5c(c4)CCC5=O)c(Cl)cc3[nH]2)cc1C(=O)O` [Example 266, 5-[6-Chloro-5-(1-oxo-indan-5-yl)-1H-benzoimidazol-2-yloxy]-2-methyl-benzoic acid]: the Emax under setting [1] was greater than 80%.

For the compound `Cc1cc(Oc2nc3cc(-c4ccc(C(C)(C)O)cc4)c(Cl)cc3[nH]2)cc(C(=O)O)c1C` [Example 316, 5-{6-Chloro-5-[4-(1-hydroxy-1-methyl-ethyl)-phenyl]-1H-benzoimidazol-2-yloxy}-2,3-dimethyl-benzoic acid], under setting [1], the Emax was greater than 80%. Regarding `Cc1ccc(Oc2nc3cc(-c4ccc(CO)cc4)c(Cl)cc3[nH]2)cc1C(=O)O` [Example 330, 2-(3-carboxy-4-methylphenoxy)-6-chloro-5-[4-(hydroxymethyl)phenyl]-1H-3,1-benzimidazol-3-ium trifluoroacetate], the Emax under setting [1] is greater than 80%. For `COc1cccc(C#Cc2cc3nc(Oc4ccc(C)c(C(=O)O)c4)[nH]c3cc2Cl)c1` [Example 108, 5-[6-Chloro-5-(3-methoxy-phenylethynyl)-1H-benzoimidazol-2-yloxy]-2-methyl-benzoic acid], the Emax under setting [1] is greater than 80%. In the case of `COc1ccc(-c2cc3nc(Oc4ccc(C)c(C(=O)O)c4)[nH]c3cc2Cl)cc1` [Example 345, Ammonium 5-{[6-chloro-5-(4-methoxyphenyl)-1H-benzimidazol-2-yl]oxy}-2-methylbenzoate], under setting [3], the Emax was greater than 80%.

For `Cc1ccc(Oc2nc3cc(C#CC4CCNC4)c(Cl)cc3[nH]2)cc1C(=O)O` (centres unmarked) [Example 138, 5-(6-Chloro-5-pyrrolidin-3-ylethynyl-1H-benzoimidazol-2-yloxy)-2-methyl-benzoic acid], under setting [1], the Emax is greater than 80%.

For `O=C(O)c1cc(O)cc(Oc2nc3cc(-c4ccc(-c5ccccc5)cc4)c(Cl)cc3[nH]2)c1` [Example 35, 3-(5-Biphenyl-4-yl-6-chloro-1H-benzoimidazol-2-yloxy)-5-hydroxy-benzoic acid], the Emax under setting [1] was greater than 80%. `COc1ccc(C(=O)O)cc1Oc1nc2cc(-c3ccc(-c4ccccc4)cc3)c(Cl)cc2[nH]1` [Example 211, 3-(5-Biphenyl-4-yl-6-chloro-1H-benzoimidazol-2-yloxy)-4-methoxy-benzoic acid]: the Emax under setting [1] is greater than 80%. With `Cc1ccc(Oc2nc3cc(C#Cc4ccccc4F)c(Cl)cc3[nH]2)cc1C(=O)O` [Example 67, 5({6-chloro-5-[(2-fluorophenyl)ethynyl]-1H-benzimidazol-2-yl}oxy)-2-methylbenzoic acid], under setting [2], the EC50 stood at 3 nM. Regarding `O=C(O)c1ccc(Cl)c(Oc2nc3cc(-c4ccc(-c5ccccc5)cc4)c(Cl)cc3[nH]2)c1` [Example 210, 3-(5-Biphenyl-4-yl-6-chloro-1H-benzoimidazol-2-yloxy)-4-chloro-benzoic acid], under setting [1], the Emax is greater than 80%. In the case of `Cc1ccc(Oc2nc3cc(-c4cnc5ccccc5c4)c(Cl)cc3[nH]2)cc1C(=O)O` [Example 148, 2-(3-carboxy-4-methylphenoxy)-6-chloro-5-quinolin-3-yl-1H-3,1-benzimidazol-3-ium chloride], the Emax under setting [1] was greater than 80%. On to `Cc1ccc(Oc2nc3cc(-c4ccc5[nH]c(-c6ccccc6)cc5c4)c(Cl)cc3[nH]2)cc1C(=O)O` [Example 278, 5-[6-Chloro-5-(2-phenyl-1H-indol-5-yl)-1H-benzoimidazol-2-yloxy]-2-methyl-benzoic acid], for which, under setting [1], the Emax was greater than 80%.

As to `Cc1ccc(Oc2nc3cc(C#Cc4ccc(O)cc4)c(Cl)cc3[nH]2)cc1C(=O)O` [Example 116, 5-[6-Chloro-5-(4-hydroxy-phenylethynyl)-1H-benzoimidazol-2-yloxy]-2-methyl-benzoic acid], the Emax under setting [1] is greater than 80%.
